{"source": "patent US9687490B2", "about": "“Triazine derivatives for the treatment of conditions associated with nicotinamide adenine dinucleotide phosphate oxidase” (GLUCOX BIOTECH AB, priority 2012, dated 2017)", "tested_on": "stroke induced mice", "experiment": "Stroke animal model: transient middle cerebral artery occlusion (tMCAO), infarct size by TTC staining", "format": "in vivo", "details": "individual animals, 3.2 mg/kg i.p. at 2 h and 12 h, 1 h occlusion, 23 h reperfusion, C57Bl6 mice", "experimental": "Mice (10-12 wk), wild type C57BI6, 6 animals, were used:\nTest (n=3) stroke induced mouse treated i.p. with inventive compound M4 (N^2-(3,4-dimethylphenyl)-6-((4-(3-methoxyphenyl)piperazin-1-yl)methyl)-1,3,5-triazine-2,4-diamine).\nM4 preparation for intra peritoneal i.p. administration: 3.5 mg of M4 were first dissolved in 1 ml of DMSO. After the substance was totally dissolved, 5 ml of 20% Cremophor ELP in PBS (phosphate buffered saline solution) was added. Thereafter an additional 4 ml of PBS was added. The 20% Cremophor ELP solution was prepared by dissolving 10.5 g of Cremophor in 50 ml of PBS.\nInjection volume of M4: The dose was 3.2 mg/kg, calculated for each animal at each event of administration (2 h and 12 h).\n• 1. Transient middle cerebral artery occlusion (tMCAO) by blocking with a filament for 1 h. • 2. Reperfusion after 1 h by removing filament • 3. Injection of M4 by i.p. after 2 h and repeated injection i.p. after 12 h • 4. Sacrifice the animal after 24 h and infarct size is determined by triphenyl tetrazolium chloride (TTC) staining—Thus the procedure of middle cerebral artery occlusion (MCAO); 1 h occlusion and 23 h reperfusion. • 5. […]\nMice were killed 24 hours after tMCAO. […] The occurrence of Intra Cerebral Hemorrhage (ICH) was macroscopically assessed on whole brains and again after the 2-mm-thick coronal brain slices were cut (see above) before TTC staining. […]", "note": "Where “and” joins values, the source holds several entries; their conditions need not be identical. Identical values can stand only once."}
{"smiles": "COc1cccc(N2CCN(Cc3nc(N)nc(Nc4ccc(C)c(C)c4)n3)CC2)c1", "note": "[M4, N^2-(3,4-dimethylphenyl)-6-((4-(3-methoxyphenyl)piperazin-1-yl)methyl)-1,3,5-triazine-2,4-diamine]", "values": [{"measurement": "Infarct volume", "result": "73 mm^3 and 145 mm^3 and 134 mm^3"}]}
